Results taken from article PMC6287304 (Antiviral Chemistry & Chemotherapy, 2018).

What was measured:
Vaccinia virus = experiment: microbe, parasite or virus in culture; assay type: cell-based; settings: Orthopoxvirus vaccinia, HEL, read-out: Antiviral activity EC50 Vaccinia virus
HEL cells = experiment: Cytotoxicity, alteration of cell morphology; assay type: cell-based, human
HSV = experiment: Antiviral activity against HSV; assay type: cell-based, herpes simplex virus; settings: HEL, read-out: EC50 values, replication of HSV-1, HSV-2 and TK-HSV-1 (range)
herpesviruses = experiment: organism not typed; assay type: cell-based; settings: for EC50: HEL, read-out: EC50 against VZV, HCMV, HSV-1, HSV-2, and Vaccinia virus (range)
[1] = Cytostatic activity, inhibition of cell growth; assay type: cell-based, human; settings: human, HEL cells, Cytotoxicity Cell growth (CC50), Table 3

Row | Compound | EC50 (Vaccinia virus) [µM] | Cytotoxicity Cell morphology (MCC) (HEL cells; Table 1) [μM] | Cytotoxicity Cell morphology (MCC) (HEL cells; Table 2) [μM] | also measured
1 | O=c1[nH]c(=O)c2ncn(CC(CO)OCP(=O)(O)O)c2[nH]1 (racemic) [Compound 5, (RS)-(((1–(2,6-Dioxo-1,2,3,6-tetrahydro-9H-purin-9-yl)-3-hydroxypropan-2-yl)oxy)methyl)phosphonic acid] | 39 ± 27 | ≥300 | >100 | EC50 (HSV): 16 to 39 µM; anti-herpesvirus activity (in words) (herpesviruses): able to inhibit the replication of herpesviruses; EC50 (herpesviruses): 17 to 43 µM
2 | Nc1nc2c(ncn2COCCO)c(=O)[nH]1 [Acyclovir, acyclovir, reference compound] | > 250 |  | >250 | 
3 | Nc1ccn(C[C@@H](CO)OCP(=O)(O)O)c(=O)n1 [Cidofovir, cidofovir] |  |  |  | CC50 at 3 days [1]: 170 ± 61 µM
4 | O=c1[nH]c(=O)c2ncn(C[C@@H](CO)OCP(=O)(O)O)c2[nH]1 [Compound 6, (S)-(((1–(2,6-Dioxo-1,2,3,6-tetrahydro-9H-purin-9-yl)-3-hydroxypropan-2-yl)oxy)methyl) phosphonic acid] | 39 ± 27 | >300 | >100 | EC50 (HSV): 16 to 39 µM; anti-herpesvirus activity (in words) (herpesviruses): able to inhibit the replication of herpesviruses; EC50 (herpesviruses): 17 to 43 µM
5 | O=c1[nH]c(=O)c2ncn(C[C@H](CF)OCP(=O)(O)O)c2[nH]1 [Compound 7, (R)-(((1–(2,6-Dioxo-1,2,3,6-tetrahydro-9H-purin-9-yl)-3-fluoropropan-2-yl)oxy)methyl)phosphonic acid] | > 313 | >313 |  | 
6 | O=c1[nH]c(=O)c2ncn(C[C@@H](CF)OCP(=O)(O)O)c2[nH]1 [Compound 8, (S)-(((1–(2,6-Dioxo-1,2,3,6-tetrahydro-9H-purin-9-yl)-3-fluoropropan-2-yl)oxy)methyl)phosphonic acid] | > 329 | >329 |  | 
7 | C[C@H](Cn1cnc2c(=O)[nH]c(=O)[nH]c21)OCP(=O)(O)O [Compound 9, (R)-(((1–(2,6-Dioxo-1,2,3,6-tetrahydro-9H-purin-9-yl)propan-2-yl)oxy)methyl)phosphonic acid] | > 100 | >100 |  | 
8 | O=c1nc(NC2CC2)c2ncn(CCOCP(=O)(O)O)c2[nH]1 [Compound 17, ((2–(6-(Cyclopropylamino)-2-oxo-2,3-dihydro-9H-purin-9-yl)ethoxy)methyl)phosphonic acid] | > 100 |  |  | Cytotoxicity Cell morphology (MCC) (HEL cells; Table 3): >100 μM; activity in all assays (in words) (herpesviruses): completely inactive in all assays
9 | Nc1nc(O)c2ncn(COC(CO)CO)c2n1 [Ganciclovir, ganciclovir, reference compound] | > 100 |  | >100 | CC50 at 3 days [1]: ≥ 317 µM
